Laboratory results as given in ChEMBL document CHEMBL3785005, “Novel triazole hybrids of myrrhanone C, a natural polypodane triterpene: Synthesis, cytotoxic activity and cell based studies” (Eur J Med Chem, 2016).

Tests used:
Format in all cases: functional, cell-based
MCF7 = assay: Cytotoxicity against human MCF7 cells assessed as cell viability after 48 hrs by MTT assay; conditions: MCF7, 48 h
A549 = assay: Cytotoxicity against human A549 cells assessed as cell viability after 48 hrs by MTT assay; conditions: A549, 48 h
[1] = Cytotoxicity against human DU145 cells assessed as cell viability after 48 hrs by MTT assay; conditions: DU-145, 48 h
HepG2 = assay: Cytotoxicity against human HepG2 cells assessed as cell viability after 48 hrs by MTT assay; conditions: HepG2, 48 h
HeLa = assay: Cytotoxicity against human HeLa cells assessed as cell viability after 48 hrs by MTT assay

Compound | IC50 (MCF7) | IC50 (A549) | IC50 [1] | IC50 (HepG2) | IC50 (HeLa)
CC(C)=CCC/C(C)=C/CC/C(C)=C/CC[C@@H]1[C@@]2(C)C/C(=C\c3ccc(OCc4cn(-c5cccc(O)c5)nn4)cc3)C(=O)C(C)(C)[C@@H]2CC[C@@]1(C)O | 45.5 µM | 110 µM | 40.6 µM | 26.9 µM | 158 µM
CC(C)=CCC/C(C)=C/CC/C(C)=C/CC[C@@H]1[C@@]2(C)C/C(=C\c3ccc(OCc4cn(-c5cccc(Br)c5)nn4)cc3)C(=O)C(C)(C)[C@@H]2CC[C@@]1(C)O | 61 µM | 33.8 µM | 40.5 µM | 23.7 µM | 37.1 µM
CC(C)=CCC/C(C)=C/CC/C(C)=C/CC[C@@H]1[C@@]2(C)CC/C(=N\OCc3cn(-c4ccc(F)c(Cl)c4)nn3)C(C)(C)[C@@H]2CC[C@@]1(C)O | 31.4 µM | 21.4 µM | 26.9 µM | 58.9 µM | 20.1 µM
CC(C)=CCC/C(C)=C/CC/C(C)=C/CC[C@@H]1[C@@]2(C)C/C(=C\c3ccc(OCc4cn(-c5cccc([N+](=O)[O-])c5)nn4)cc3)C(=O)C(C)(C)[C@@H]2CC[C@@]1(C)O | 79.4 µM | 126 µM | 46.4 µM | 117 µM | 32.9 µM
CC(C)=CCC/C(C)=C/CC/C(C)=C/CC[C@@H]1[C@@]2(C)CC/C(=N\OCc3cn(-c4ccccc4C#N)nn3)C(C)(C)[C@@H]2CC[C@@]1(C)O | 24.9 µM | 19.9 µM | 25.1 µM | 21.9 µM | 21.2 µM
CC(C)=CCC/C(C)=C/CC/C(C)=C/CC[C@@H]1[C@@]2(C)C/C(=C\c3ccc(OCc4cn(-c5ccc(Cl)cc5)nn4)cc3)C(=O)C(C)(C)[C@@H]2CC[C@@]1(C)O | 72.4 µM | 83.2 µM | 79.4 µM | 123 µM | 50.7 µM
CC(C)=CCC/C(C)=C/CC/C(C)=C/CC[C@@H]1[C@@]2(C)C/C(=C\c3ccc(OCc4cn(-c5ccccc5C#N)nn4)cc3)C(=O)C(C)(C)[C@@H]2CC[C@@]1(C)O | 29.9 µM | 61.6 µM | 25.1 µM | 63.1 µM | 100 µM
CC(C)=CCC/C(C)=C/CC/C(C)=C/CC[C@@H]1[C@@]2(C)CC/C(=N\OCc3cn(-c4ccncc4)nn3)C(C)(C)[C@@H]2CC[C@@]1(C)O | 12.6 µM | 13 µM | 17.4 µM | 22 µM | 18.8 µM
CC(C)=CCC/C(C)=C/CC/C(C)=C/CC[C@@H]1[C@@]2(C)CC/C(=N\OCc3cn(-c4cccc(C(F)(F)F)c4)nn3)C(C)(C)[C@@H]2CC[C@@]1(C)O | 21.4 µM | 12.9 µM | 11.8 µM | 22.7 µM | 12.5 µM
CC(C)=CCC/C(C)=C/CC/C(C)=C/CC[C@@H]1[C@@]2(C)C/C(=C\c3ccc(OCc4cn(-c5cccc(C(F)(F)F)c5)nn4)cc3)C(=O)C(C)(C)[C@@H]2CC[C@@]1(C)O | 13.8 µM | 23.2 µM | 9.33 µM | 27.6 µM | 17.3 µM
COc1cccc(-n2cc(COc3ccc(/C=C4\C[C@]5(C)[C@@H](CC/C=C(\C)CC/C=C(\C)CCC=C(C)C)[C@](C)(O)CC[C@H]5C(C)(C)C4=O)cc3)nn2)c1 | 16.6 µM | 45.7 µM | 14.5 µM | 50.1 µM | 16.2 µM
CC(C)=CCC/C(C)=C/CC/C(C)=C/CC[C@@H]1[C@@]2(C)CC/C(=N\OCc3cn(-c4ccc(Cl)cc4)nn3)C(C)(C)[C@@H]2CC[C@@]1(C)O | 12.4 µM | 12.3 µM | 16.2 µM | 19.9 µM | 14.8 µM
CC(C)=CCC/C(C)=C/CC/C(C)=C/CC[C@@H]1[C@@]2(C)CC/C(=N\OCc3cn(-c4ccc(F)cc4)nn3)C(C)(C)[C@@H]2CC[C@@]1(C)O | 25.9 µM | 18 µM | 21.6 µM | 63.1 µM | 21.4 µM
CC(C)=CCC/C(C)=C/CC/C(C)=C/CC[C@@H]1[C@@]2(C)C/C(=C\c3ccc(OCc4cn(-c5ccncc5)nn4)cc3)C(=O)C(C)(C)[C@@H]2CC[C@@]1(C)O | 37.5 µM | 34 µM | 25.7 µM | 105 µM | 77.6 µM
CC(C)=CCC/C(C)=C/CC/C(C)=C/CC[C@@H]1[C@@]2(C)C/C(=C\c3ccc(OCc4cn(-c5ccc(F)cc5)nn4)cc3)C(=O)C(C)(C)[C@@H]2CC[C@@]1(C)O | 42 µM | 55.2 µM | 33.6 µM | 35.9 µM | 126 µM
CC(C)=CCC/C(C)=C/CC/C(C)=C/CC[C@@H]1[C@@]2(C)CC/C(=N\OCc3cn(-c4cccc(O)c4)nn3)C(C)(C)[C@@H]2CC[C@@]1(C)O | 9.9 µM | 12.8 µM | 17.5 µM | 21.2 µM | 13.5 µM
CC(C)=CCC/C(C)=C/CC/C(C)=C/CC[C@@H]1[C@@]2(C)CCC(=O)C(C)(C)[C@@H]2CC[C@@]1(C)O | 16.2 µM | 12 µM | 13.2 µM | 26.6 µM | 18.3 µM
COc1cc(OC)c(-n2cc(COc3ccc(/C=C4\C[C@]5(C)[C@@H](CC/C=C(\C)CC/C=C(\C)CCC=C(C)C)[C@](C)(O)CC[C@H]5C(C)(C)C4=O)cc3)nn2)c(OC)c1 | 13.5 µM | 16.1 µM | 12 µM | 57.5 µM | 17.5 µM
COc1cccc2c1C(=O)c1c(O)c3c(c(O)c1C2=O)C[C@@](O)(C(=O)CO)C[C@@H]3O[C@H]1C[C@H](N)[C@H](O)[C@H](C)O1 [DOXORUBICIN] |  | 2.81 µM | 1.41 µM | 3.01 µM | 2.57 µM
CC(C)=CCC/C(C)=C/CC/C(C)=C/CC[C@@H]1[C@@]2(C)CC/C(=N\OCc3cn(-c4c(Cl)cc([N+](=O)[O-])cc4Cl)nn3)C(C)(C)[C@@H]2CC[C@@]1(C)O | 16.6 µM | 11.2 µM | 16.4 µM | 34.9 µM | 23 µM
COc1cccc(-n2cc(CO/N=C3\CC[C@]4(C)[C@@H](CC/C=C(\C)CC/C=C(\C)CCC=C(C)C)[C@](C)(O)CC[C@H]4C3(C)C)nn2)c1 | 25.4 µM | 21.7 µM | 30.5 µM | 51.3 µM | 22.9 µM
CC(C)=CCC/C(C)=C/CC/C(C)=C/CC[C@@H]1[C@@]2(C)C/C(=C\c3ccc(OCc4cn(-c5ccc(F)c(Cl)c5)nn4)cc3)C(=O)C(C)(C)[C@@H]2CC[C@@]1(C)O | 46.5 µM | 46.6 µM | 28.4 µM | 40.2 µM | 43 µM
CC(C)=CCC/C(C)=C/CC/C(C)=C/CC[C@@H]1[C@@]2(C)CC/C(=N\OCc3cn(-c4cccc(Br)c4)nn3)C(C)(C)[C@@H]2CC[C@@]1(C)O | 24.8 µM | 11.7 µM | 14.6 µM | 39.8 µM | 15.7 µM
CC(C)=CCC/C(C)=C/CC/C(C)=C/CC[C@@H]1[C@@]2(C)C/C(=C\c3ccc(OCc4cn(-c5ccccc5)nn4)cc3)C(=O)C(C)(C)[C@@H]2CC[C@@]1(C)O | 23 µM | 100 µM | 21 µM | 126 µM | 36.3 µM
CC(C)=CCC/C(C)=C/CC/C(C)=C/CC[C@@H]1[C@@]2(C)C/C(=C\c3ccc(OCc4cn(-c5c(Cl)cc([N+](=O)[O-])cc5Cl)nn4)cc3)C(=O)C(C)(C)[C@@H]2CC[C@@]1(C)O | 27.1 µM | 34.7 µM | 20.9 µM | 25.1 µM | 36.9 µM
CC(C)=CCC/C(C)=C/CC/C(C)=C/CC[C@@H]1[C@@]2(C)CC/C(=N\OCc3cn(-c4cccc([N+](=O)[O-])c4)nn3)C(C)(C)[C@@H]2CC[C@@]1(C)O | 20.7 µM | 14.8 µM | 17.4 µM | 22 µM | 18.4 µM
CC(C)=CCC/C(C)=C/CC/C(C)=C/CC[C@@H]1[C@@]2(C)CC/C(=N\OCc3cn(-c4ccc(F)c(F)c4F)nn3)C(C)(C)[C@@H]2CC[C@@]1(C)O | 32.2 µM | 26.9 µM | 30.4 µM | 37.7 µM | 26.2 µM
